# Measured values reported in US4877795A, “4H-quinolizin-4-one compounds useful for the treatment of allergic bronchial asthma, allergic rhinitis atropic dermatitis and the like” (Kissei Pharmaceutical Co., Ltd., priority 1987, dated 1989).
# How the values were obtained:
# IgG = assay: Determination of Igs produced in in vitro culture: inhibition of IgG secreted by spleen cells (adoptive secondary immune response to DNP-As), ELISA; assay type: cell-based, BALB/c mice; conditions: 1.0 μg/ml, 4 days culture; for inhibition at 1 µg/mL: Mus musculus, 96 h
# Method in brief: (§1)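 Donor BALB/c mice primed i.p. with 5 μg DNP-As on alum; 5×10^7 spleen cells transferred i.v. into 600-rad-irradiated recipients, boosted likewise. After 4 weeks, recipient spleen cells (5×10^6 cells/ml) cultured ± compound 4 days at 37° C; secreted IgG/IgE quantified by ELISA, % inhibition vs untreated culture.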
# IgE = assay: Determination of Igs produced in in vitro culture: inhibition of IgE secreted by spleen cells (adoptive secondary immune response to DNP-As), ELISA; assay type: cell-based, BALB/c mice; conditions: 1.0 μg/ml, 4 days culture; for inhibition at 1 µg/mL: Mus musculus, 96 h
# Method in brief: as §1
SMILES,inhibition at 1 µg/mL (IgG) [%],inhibition at 1 µg/mL (IgE) [%],Inhibition % of IgG (IgG) [%],Inhibition % of IgE (IgE) [%]
"CSc1c(C#N)c(=O)n2ccccc2c1C(=O)CCCCc1ccccc1 [S-107, 3-Cyano-2-methylthio-1-(5-phenylvaleryl)-4H-quinolizin-4-one]",43,80,,
"CSc1c(C#N)c(=O)n2ccc(C)cc2c1C(=O)CCCCc1ccccc1 [S-108, 3-Cyano-8-methyl-2-methylthio-1-(5-phenylvaleryl)-4H-quinolizin-4-one]",35,60,,
"CSc1c(C#N)c(=O)n2ccccc2c1C(=O)CC1CCN(c2ccccc2)CC1 [S-109, 3-Cyano-2-methylthio-1-(1-phenyl-4-piperidylacetyl)-4-quinolizin-4-one]",,,54,77
